In US20230255953A1, “USE OF ROLUPERIDONE IN PREVENTING RELAPSE IN SCHIZOPHRENIA PATIENTS” (Minerva Neurosciences, Inc., priority 2022, published 2023):

Tests used:
Assay type in all cases: in vivo, human
[1] = system: patients with negative symptoms of schizophrenia; test: Study #1 (MIN-101C03): Personal and Social Performance (PSP); settings: Week 12 DB; for Change from Baseline LS Mean: PSP Disturbing & Aggressive Behavior / Change from Baseline LS Mean: PSP Personal and Social Relationships / Change from Baseline LS Mean: PSP Self-care / Change from Baseline LS Mean: PSP Socially Useful Activities / Change from Baseline LS Mean: PSP Total Score (mapped from the 4 domains) / Effect Size vs Placebo: PSP Disturbing & Aggressive Behavior / Effect Size vs Placebo: PSP Personal and Social Relationships / Effect Size vs Placebo: PSP Self-care / Effect Size vs Placebo: PSP Socially Useful Activities / Effect Size vs Placebo: PSP Total Score (mapped from the 4 domains): ITT
Excerpt: The PSP is a validated clinician-rated scale intended to reflect real-life situations that measures personal and social functioning in 4 domains: (a) socially useful activities, (b) personal and social relationships, (c) self-care, and (d) disturbing and aggressive behaviors. The score is based on the assessment of a patient's performance in the 4 domains. The PSP Total score is a single measurement of functioning ranging from 1 to 100, where a higher score represents better functioning. A score of 91 to 100 indicates excellent functioning in all 4 main areas; the patient is held in high consideration for their good qualities, copes adequately with life problems, and is involved in a wide range of interests and activities. A score of 1 to 10 indicates a lack of autonomy in basic functioning with extreme behaviors but without survival risk (score 6 to 10) or with survival risk (score 1 to 5). […] Review of the relevant scientific literature and the analysis of the psychometric properties of the 4 domains that result in the generation of the PSP Total score were supportive of the appropriateness and cross-cultural applicability of the use of the PSP in drug development for the indication of negative symptoms of schizophrenia The PSP was assessed at the timepoints described in Table 6. The changes from Baseline in the PSP Total score and individual domain scores after 12 weeks of treatment were exploratory efficacy endpoints in Study MIN-101C03, and the Total score was the key secondary efficacy endpoint and the PSP domain scores were exploratory endpoints in Study MIN-101C07.
(§1) Phase 2b Study #1 (also referred to herein as “MIN-101C03”) was a Phase 2b, double-blind (“DB”), placebo-controlled, randomized, multicenter 12-week study to evaluate the efficacy, safety, and tolerability of Roluperidone in patients ≥18 years to ≤60 years with negative symptoms of schizophrenia, followed by a 24-week open-label (“OL”) extension. The primary objective of the study was to evaluate the efficacy of Roluperidone compared to placebo in improving the negative symptoms of schizophrenia as measured by the change from Baseline in the PANSS negative factor score of the PSM (“PANSS PSM”) over 12 weeks of treatment.
(§2) The study consisted of a pretreatment screening period of up to 28 days (including washout), a 12-week, DB, placebo-controlled period, and a 24-week OL period. Eligible patients (who were symptomatically stable for at least 3 months and had scores of at least 20 on the PANSS negative subscale score) were randomized in a 1:1:1 ratio to receive oral Roluperidone (a modified-release, “MR”, formulation) 32 mg QD, Roluperidone 64 mg QD, or placebo for 12 weeks. […] During the 24-week, OL treatment extension period, patients who were initially randomized to Roluperidone 32 mg or 64 mg continued on the same dose, while patients who were initially randomized to placebo crossed over to Roluperidone 32 mg or 64 mg in a 1:1 ratio.

[2] = system: patients with negative symptoms of schizophrenia; test: Study #1 (MIN-101C03): CGI-S and CGI-I; settings: Week 12 DB, ITT
Description: (§3) The CGI-S is a clinician-rated scale that is designed to rate the severity of the patient's illness at the time of assessment, including knowledge of the patient's history, psychosocial circumstances, symptoms, behavior, and the impact of the symptoms on the patient's ability to function relative to the clinician's past experience with patients who have the same diagnosis and similar improvement with treatment. Considering total clinical experience, a patient is assessed on severity of mental illness at the time of rating, where 1=normal (not at all ill); 2=borderline mentally ill; 3=mildly ill; 4=moderately ill; 5=markedly ill; 6=severely ill; or 7=extremely ill.
(§4) The CGI-S and CGI-I were assessed at the timepoints described in Table 7. The CGI-S and CGI-I were exploratory endpoints in Studies MIN-101C03 and MIN-101C07.
as §1, §2

[3] = system: patients with negative symptoms of schizophrenia; test: Study #1 (MIN-101C03): Calgary Depression Scale for Schizophrenia; settings: Week 12 DB, ITT
Excerpt: as §1, §2

[4] = system: patients with negative symptoms of schizophrenia; test: Study #2 (MIN-101C07): CGI-S and CGI-I; settings: Week 12 DB, ITT
Description: as §3, §4
(§5) Study #2 (also referred to as “MIN101C07”) was a Phase 3, randomized, DB, placebo-controlled, parallel-group 12-week study to evaluate the efficacy and safety of Roluperidone in patients ≥18 years to ≤55 years with negative symptoms of schizophrenia, followed by a 40-week OL extension. The study consisted of a pretreatment screening period of up to 28 days (including an antipsychotic medication washout period), a 12-week, DB, placebo-controlled period, and a 40-week OL period. Eligible patients (with moderate to severe negative symptoms of schizophrenia and stable positive symptoms but without severe symptoms of suspiciousness, agitation, hostility, uncooperativeness, or poor impulse control) were randomized 1:1:1 to receive Roluperidone 32 mg QD, Roluperidone 64 mg QD (GR01/B formulation, see U.S. Pat. No. 11,464,744), or placebo, orally, for 12 weeks. […] During the 40-week OL treatment extension, patients who were initially randomized to Roluperidone 32 mg or 64 mg continued treatment with the same dose, while patients who were initially randomized to placebo crossed over to Roluperidone 32 mg or 64 mg in a 1:1 ratio.

[5] = system: patients with negative symptoms of schizophrenia; test: Study #2 (MIN-101C07): Calgary Depression Scale for Schizophrenia; settings: Week 12 DB, ITT
Excerpt: as §5

1H-Isoindol-1-one,2-[ [1-[2-(4-fluorophenyl)-2-oxoethyl]-4-piperidinyl]methyl]-2,3-dihydro-, hydrochloride, hydrate (1:1:2) [Roluperidone]
Effect Size vs Placebo: 7-Point improvement in PSP Total Score responders ([1]; 32 mg QD): 0.05
Effect Size vs Placebo: 10-Point improvement in PSP Total Score responders ([1]; 32 mg QD): 0.05
Number of Patients with 7-Point improvement in PSP Total Score at Week 12 ([1]; 32 mg QD): 17/50
Number of Patients with 10-Point improvement in PSP Total Score at Week 12 ([1]; 32 mg QD): 17/50
Patients with 7-Point improvement in PSP Total Score at Week 12 (%) ([1]; 32 mg QD): (34%)
Patients with 10-Point improvement in PSP Total Score at Week 12 (%) ([1]; 32 mg QD): (34%)
Change from Baseline LS Mean: PSP Disturbing & Aggressive Behavior ([1]; 32 mg QD): −0.15
Change from Baseline LS Mean: PSP Personal and Social Relationships ([1]; 32 mg QD): −0.22
Change from Baseline LS Mean: PSP Self-care ([1]; 32 mg QD): −0.37
Change from Baseline LS Mean: PSP Socially Useful Activities ([1]; 32 mg QD): −0.41
Change from Baseline LS Mean: PSP Total Score (mapped from the 4 domains) ([1]; 32 mg QD): 1.77
Effect Size vs Placebo: PSP Disturbing & Aggressive Behavior ([1]; 32 mg QD): 0.36
Effect Size vs Placebo: PSP Personal and Social Relationships ([1]; 32 mg QD): 0.02
Effect Size vs Placebo: PSP Self-care ([1]; 32 mg QD): 0.27
Effect Size vs Placebo: PSP Socially Useful Activities ([1]; 32 mg QD): 0.14
Effect Size vs Placebo: PSP Total Score (mapped from the 4 domains) ([1]; 32 mg QD): −0.01
Effect Size vs Placebo: 7-Point improvement in PSP Total Score responders ([1]; 64 mg QD): 0.17
Effect Size vs Placebo: 10-Point improvement in PSP Total Score responders ([1]; 64 mg QD): 0.17
Number of Patients with 7-Point improvement in PSP Total Score at Week 12 ([1]; 64 mg QD): 26/54
Number of Patients with 10-Point improvement in PSP Total Score at Week 12 ([1]; 64 mg QD): 26/54
Change from Baseline LS Mean: PSP Disturbing & Aggressive Behavior ([1]; 64 mg QD): −0.24
Change from Baseline LS Mean: PSP Personal and Social Relationships ([1]; 64 mg QD): −0.56
Change from Baseline LS Mean: PSP Self-care ([1]; 64 mg QD): −0.48
Change from Baseline LS Mean: PSP Socially Useful Activities ([1]; 64 mg QD): −0.57
Change from Baseline LS Mean: PSP Total Score (mapped from the 4 domains) ([1]; 64 mg QD): 8.52
Effect Size vs Placebo: PSP Disturbing & Aggressive Behavior ([1]; 64 mg QD): 0.51
Effect Size vs Placebo: PSP Personal and Social Relationships ([1]; 64 mg QD): 0.53
Effect Size vs Placebo: PSP Self-care ([1]; 64 mg QD): 0.46
Effect Size vs Placebo: PSP Socially Useful Activities ([1]; 64 mg QD): 0.38
Effect Size vs Placebo: PSP Total Score (mapped from the 4 domains) ([1]; 64 mg QD): 0.56
Change from Baseline: Clinical Global Impression of Severity (observed change) ([2]; 32 mg QD): −0.40
Effect Size vs Placebo: Clinical Global Impression of Improvement ([2]; 32 mg QD): 0.33
Effect Size vs Placebo: Clinical Global Impression of Severity ([2]; 32 mg QD): 0.35
Change from Baseline: Clinical Global Impression of Severity (observed change) ([2]; 64 mg QD): −0.40 (0.1)
Effect Size vs Placebo: Clinical Global Impression of Improvement ([2]; 64 mg QD): 0.57
Effect Size vs Placebo: Clinical Global Impression of Severity ([2]; 64 mg QD): 0.43
Change from Baseline LS Mean: Calgary Depression Scale for Schizophrenia ([3]; 32 mg QD): −0.37
Effect Size vs Placebo: Calgary Depression Scale for Schizophrenia ([3]; 32 mg QD): 0.25
Change from Baseline LS Mean: Calgary Depression Scale for Schizophrenia ([3]; 64 mg QD): −0.71
Effect Size vs Placebo: Calgary Depression Scale for Schizophrenia ([3]; 64 mg QD): 0.46
Change from Baseline LS Mean: Clinical Global Impression of Severity ([4]; 32 mg QD): −0.4
Clinical Global Impression of Improvement, LS Mean (observed data, MMRM) ([4]; 32 mg QD): 3.4
Effect Size (Cohen's d) vs Placebo: Clinical Global Impression of Improvement ([4]; 32 mg QD): −0.12
Effect Size (Cohen's d) vs Placebo: Clinical Global Impression of Severity ([4]; 32 mg QD): 0.12
Change from Baseline LS Mean: Clinical Global Impression of Severity ([4]; 64 mg QD): −0.5
Clinical Global Impression of Improvement, LS Mean (observed data, MMRM) ([4]; 64 mg QD): 3.3
Effect Size (Cohen's d) vs Placebo: Clinical Global Impression of Improvement ([4]; 64 mg QD): 0.02
Effect Size (Cohen's d) vs Placebo: Clinical Global Impression of Severity ([4]; 64 mg QD): 0.24
Change from Baseline LS Mean: Calgary Depression Scale for Schizophrenia ([5]; 32 mg QD): −0.2
Effect Size (Cohen's d) vs Placebo: Calgary Depression Scale for Schizophrenia ([5]; 32 mg QD): 0.21
Change from Baseline LS Mean: Calgary Depression Scale for Schizophrenia ([5]; 64 mg QD): −0.1
Effect Size (Cohen's d) vs Placebo: Calgary Depression Scale for Schizophrenia ([5]; 64 mg QD): 0.14
